Reference: patent US12390437B2, “Itaconic acid derivatives and uses thereof intreating an inflammatory disease or a disease associated with an undesirable immune response” (Sitryx Therapeutics Limited, priority 2019, dated 2025)
pEC50, pIC50: −log10 of the molar value. Where two headings read alike, the source gives them in different places.

What was measured:
[1] = tested on: IL-1β cytokine output from THP-1s; test: THP-1 AlphaLISA IL-1β cytokine assay; assay type: cell-based, human; settings: Homo sapiens, LPS 24 hr then Nigericin 1 hour, read-out: IL-1β (IC50)
How it was run: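 PMA-differentiated THP-1 cells (72 h) were pre-incubated 30 min with compound, then LPS-primed 24 h and pulsed with nigericin for 1 h at 37 °C. Supernatant cytokine was quantified by AlphaLISA; % inhibition was normalised to +/−LPS plate controls and IC50 taken from concentration-response curves.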

[2] = tested on: IL-6 cytokine output from THP-1s; test: THP-1 AlphaLISA IL-6 cytokine assay; assay type: cell-based, human; settings: Homo sapiens; PMA-differentiated THP-1 cells, LPS 24 hr then Nigericin 1 hour
Description: Measuring Inhibitory Effects on IL-1β and IL-6 Cytokine Output from THP-1s
The cytokine inhibition profiles of compounds of formula (IW-1) were determined in a differentiated THP-1 cell assay. All assays were performed in RPMI-1640 growth medium (Gibco), supplemented with 10% fetal bovine serum (FBS; Gibco), 1% penicillin-streptomycin and 1% sodium pyruvate unless specified otherwise. The IL-1β and IL-6 cytokine inhibition assays were each run in a background of differentiated THP-1 cells as described below. All reagents described were from Sigma-Aldrich unless specified otherwise. Compounds were prepared as 10 mM DMSO stocks.
THP-1 cells were expanded as a suspension up to 80% confluence in appropriate growth medium. Cells were harvested, suspended, and treated with an appropriate concentration of phorbol 12-myristate 13-acetate (PMA) over a 72 hr period (37° C./5% CO2).
Following 72 hrs of THP-1 cell incubation, cellular medium was removed and replaced with fresh growth media containing 1% of FBS. Working concentrations of compounds were prepared separately in 10% FBS treated growth medium and pre-incubated with the cells for 30 minutes (37° C./5% CO2). Following the 30 minute compound pre-incubation, THP-1s were treated with an appropriate concentration of LPS and the THP-1s were subsequently incubated for a 24 hr period (37° C./5% CO2). An appropriate final concentration of Nigericin was then dispensed into the THP-1 plates and incubated for 1 hour (37° C./5% CO2) before THP-1 supernatants were harvested and collected in separate polypropylene 96-well holding plates.
Reagents from each of the IL-1β and IL-6 commercial kits (Perkin Elmer) were prepared and run according to the manufacturer's instructions. Subsequently, fluorescence signal detection in a microplate reader was measured (EnVision® Multilabel Reader, Perkin Elmer).
Percentage inhibition was calculated per cytokine by normalising the sample data to the high and low controls used within each plate (+/−LPS respectively). Percentage inhibition was then plotted against compound concentration and the 50% inhibitory concentration (IC50) was determined from the resultant concentration-response curve.

[3] = tested on: NRF2; test: NRF2 +/-GSH activation assay (DiscoverX PathHunter NRF2 translocation kit, U2OS cells); assay type: cell-based; settings: Homo sapiens; for Emax: read-out: NRF2 activation Emax; for pEC50: read-out: NRF2 activation EC50
Description: Measuring Compound Activation Effects on the Anti-Inflammatory Transcription Factor NRF2 in DiscoverX PathHunter NRF2 Translocation Kit
Potency and efficacy of compounds of formula (IW-1) against the target of interest to activate NRF2 (nuclear factor erythroid 2-related factor 2) were determined using the PathHunter NRF2 translocation kit (DiscoverX). The NRF2 translocation assay was run using an engineered recombinant cell line, utilising enzyme fragment complementation to determine activation of the Keap1-NRF2 protein complex and subsequent translocation of NRF2 into the nucleus. Enzyme activity was quantified using a chemiluminescent substrate consumed following the formation of a functional enzyme upon PK-tagged NRF2 translocation into the nucleus.
The assay was run under either +/−GSH (glutathione) conditions to determine the attenuating activities of GSH against target compounds.
Additionally, a defined concentration of dimethyl fumarate was used as the ‘High’ control to normalise test compound activation responses to.
U2OS PathHunter eXpress cells were thawed from frozen prior to plating. Following plating, U2OS cells were incubated for 24 hrs (37° C./5% CO2) in commercial kit provided cell medium.
Following 24 hrs of U2OS incubation, cells were directly treated with an appropriate final concentration of compound, for −GSH conditions, or for +GSH conditions, an intermediate plate containing 6× working concentrations of compound stocks was prepared in a 6 mM working concentration of GSH solution (solubilised in sterile PBS). Following a 30 minute compound-GSH pre-incubation (37° C./5% CO2) for +GSH treatment, plated U2OS cells were incubated with an appropriate final concentration of compound and GSH.
Following compound (+/−GSH) treatment, the U2OS plates were incubated for a further 6 hours (37° C./5% CO2) before detection reagent from the PathHunter NRF2 commercial kit was prepared and added to test plates according to the manufacturer's instructions. Subsequently, the luminescence signal detection in a microplate reader was measured (PHERAstar®, BMG Labtech).
Percentage activation was calculated by normalising the sample data to the high and low controls used within each plate (+/−DMF). Percentage activation/response was then plotted against compound concentration and the 50% activation concentration (EC50) was determined from the plotted concentration-response curve.

[4] = THP-1, PMA-differentiated THP-1 cells
[5] = U2OS, normalised to dimethyl fumarate 'High' control, GSH condition not stated in Table 5
[6] = U2OS PathHunter cells, 6 hours, GSH condition not stated in Table 5

Row | Structure (SMILES) | pIC50 [1, 4] | pIC50 [2] | also measured
1 | C=C(CC(=O)OC)C(=O)OC1COC1 [Example 15, 4-methyl 1-(oxetan-3-yl) 2-methylenesuccinate] | 4.81 | 5.05 | 
2 | C=C(CC(=O)OC(C)C)C(=O)OCCS(C)(=O)=O [Example 22, 4-isopropyl 1-(2-(methylsulfonyl)ethyl) 2-methylenesuccinate] | 4.81 | 5.15 | 
3 | C=C(CC(=O)OC1CCCCCCC1)C(=O)OCCS(C)(=O)=O [Example 25, 4-cyclooctyl 1-(2-(methylsulfonyl)ethyl) 2-methylenesuccinate] | 5.72 | 5.72 | 
4 | C=C(CC(=O)OCCCCCCCC)C(=O)OC1CCN(S(C)(=O)=O)CC1 [Example 28, 1-(1-(methylsulfonyl)piperidin-4-yl) 4-octyl 2-methylenesuccinate] | 5.28 | 5.66 | 
5 | C=C(CC(=O)OCCOCCOCC)C(=O)OCCS(C)(=O)=O [Example 36, 4-(2-(2-ethoxyethoxy)ethyl) 1-(2-(methylsulfonyl)ethyl) 2-methylenesuccinate] | 4.69 | 5.05 | 
6 | C=C(CC(=O)OCCCCCCCC)C(=O)OC(C)OC(C)=O (stereo not drawn) [Example 46, 1-(1-acetoxyethyl) 4-octyl 2-methylenesuccinate] | 5.17 | 5.52 | 
7 | C=C(CC(=O)OCCCCCCCC)C(=O)OCC(=O)OC(C)(C)C [Example 48, 1-(2-(tert-butoxy)-2-oxoethyl) 4-octyl 2-methylenesuccinate] | 5.00 | 5.29 | 
8 | C=C(CC(=O)OCCCCCCCC)C(=O)OCCN1CCS(=O)(=O)CC1 [Example 52, 1-(2-(1,1-dioxidothiomorpholino)ethyl) 4-octyl 2-methylenesuccinate] | 5.07 | 5.60 | 
9 | C=C(CC(=O)OC1CC2(COC2)C1)C(=O)O[C@H]1[C@@H]2CC[C@H]1CN(S(C)(=O)=O)C2 [Example 157, 1-((endo)-3-(methylsulfonyl)-3-azabicyclo[3.2.1]octan-8-yl) 4-(2-oxaspiro[3.3]heptan-6-yl) 2-methylenesuccinate] | 4.38 |  | Emax [3, 5]: 29%; pEC50 [3, 6]: < 4.00
10 | C=C(CC(=O)OC1CCCOCC1)C(=O)O[C@H]1[C@@H]2CC[C@H]1CN(S(C)(=O)=O)C2 (stereo partly drawn) [Example 158, 1-((endo)-3-(methylsulfonyl)-3-azabicyclo[3.2.1]octan-8-yl) 4-(oxepan-4-yl) 2-methylenesuccinate] | 4.62 |  | Emax [3, 5]: 43%; pEC50 [3, 6]: 4.14
11 | C=C(CC(=O)OC(C)COCCCC)C(=O)O[C@H]1[C@@H]2CC[C@H]1CN(S(C)(=O)=O)C2 (stereo partly drawn) [Example 159, 4-(1-butoxypropan-2-yl) 1-((endo)-3-(methylsulfonyl)-3-azabicyclo[3.2.1]octan-8-yl) 2-methylenesuccinate] | 4.50 |  | Emax [3, 5]: 86%; pEC50 [3, 6]: 4.86
12 | C=C(CC(=O)OC1CC2(CCC2)C1)C(=O)OCC(O)(O)C(F)(F)F [Example 160, 4-spiro[3.3]heptan-2-yl 1-(3,3,3-trifluoro-2,2-dihydroxypropyl) 2-methylenesuccinate Hydrate] |  |  | pEC50 ([3]; U2OS, 6 h): 4.14; Emax ([3]; U2OS): 7%; pIC50 ([1]; PMA-differentiated THP-1 cells): 5.09
13 | C=C(CC(=O)OC1CCCCCC1)C(=O)OCc1nn[nH]n1 [Example 162, 1-(2H-tetrazol-5-yl)methyl 4-cycloheptyl 2-methylenesuccinate] | 4.83 |  | Emax [3, 5]: 164%; pEC50 [3, 6]: 4.50
14 | C=C(CC(=O)OC1CC2(CCC2)C1)C(=O)OCc1nn[nH]n1 [Example 163, 1-(2H-tetrazol-5-yl)methyl 4-spiro[3.3]heptan-2-yl 2-methylenesuccinate] | 4.62 |  | Emax [3, 5]: 0%; pEC50 [3, 6]: < 4.00
15 | C=C(C(=O)OCC(=O)O)C(O)C(=O)OC1CCCCCCC1 (stereo not drawn) [Example 189, 2-((4-(cyclooctyloxy)-3-hydroxy-2-methylene-4-oxobutanoyl)oxy)acetic acid] | 4.24 |  | Emax [3, 5]: 137%; pEC50 [3, 6]: 4.74

More lines, main results first:

Row | pIC50 [1, 4] | pIC50 [2] | Structure (SMILES) | also measured
16 | 5.09 | 5.35 | C=C(CC(=O)OCCCCCCCC)C(=O)O[C@H]1CCOC1 [Example 23, (S)-4-octyl 1-(tetrahydrofuran-3-yl) 2-methylenesuccinate] | 
17 | 4.82 | 5.38 | C=C(CC(=O)OCCCCCCCC)C(=O)O[C@@H]1CCOC1 [Example 24, (R)-4-octyl 1-(tetrahydrofuran-3-yl) 2-methylenesuccinate] | 
18 | 4.91 | 5.19 | C=C(CC(=O)OCCCCCCCC)C(=O)OC(C)CC#N (stereo not drawn) [Example 27, 1-(1-cyanopropan-2-yl) 4-octyl 2-methylenesuccinate] | 
19 | 4.74 | 5.10 | C=C(CC(=O)OCCCCCCCC)C(=O)OCCOC [Example 29, 1-(2-methoxyethyl) 4-octyl 2-methylenesuccinate] | 
20 | 4.95 | 5.32 | C=C(CC(=O)OCCCCCCCC)C(=O)OCC(C)(C)C#N [Example 30, 1-(2-cyano-2-methylpropyl) 4-octyl 2-methylenesuccinate] | 
21 | 4.89 | 4.81 | C=C(CC(=O)OCCCCCCCC)C(=O)OC(C)COC (stereo not drawn) [Example 31, 1-(1-methoxypropan-2-yl) 4-octyl 2-methylenesuccinate] | 
22 | 4.72 | 5.02 | C=C(CC(=O)OCCCCCCCC)C(=O)OCC1(C#N)CC1 [Example 32, 1-((1-cyanocyclopropyl)methyl) 4-octyl 2-methylenesuccinate] | 
23 | 4.85 | 4.93 | C=C(CC(=O)OCCCCCCCC)C(=O)OCC(C)OC (stereo not drawn) [Example 33, 1-(2-methoxypropyl) 4-octyl 2-methylenesuccinate] | 
24 | 4.50 | 4.79 | C=C(CC(=O)OCCCCCCCC)C(=O)OCC(C)(C)OC [Example 34, 1-(2-methoxy-2-methylpropyl) 4-octyl 2-methylenesuccinate] | 
25 | 5.17 | 5.43 | C=C(CC(=O)OCCCCCCCC)C(=O)OCCN1CCOCC1 [Example 35, 1-(2-morpholinoethyl) 4-octyl 2-methylenesuccinate] | 
26 | 5.48 | 5.52 | C=C(CC(=O)OCCCCCCCC)C(=O)OC1CS(=O)(=O)C1 [Example 47, 1-(1,1-dioxidothietan-3-yl) 4-octyl 2-methylenesuccinate] | 
27 | 5.14 | 5.40 | C=C(CC(=O)OCCCCCCCC)C(=O)OCCN1CCN(C)CC1 [Example 51, 1-(2-(4-methylpiperazin-1-yl)ethyl) 4-octyl 2-methylenesuccinate] | 
28 | 5.03 | 5.27 | C=C(CC(=O)OCCCCCCCC)C(=O)OCCNS(C)(=O)=O [Example 53, 1-(2-(methylsulfonamido)ethyl) 4-octyl 2-methylenesuccinate] | 
